The values below come from US20120252741A1, “NOVEL SEMI-SYNTHETIC GLYCOPEPTIDES AS ANTIBACTERIAL AGENTS” (priority 2008, published 2012).

In general, MIC refers to the lowest concentration that inhibits growth of the organism.

What all share (assay type): cell-based
Experiment [1] concerns Staphylococcus aureus 100 (ATCC 29213). The experiment in a line: MIC, broth microdilution, SA 100. Summed up:
(§1)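 Clinical isolates, glycopeptide-sensitive or -resistant, were tested in Mueller-Hinton broth. MICs came from the CLSI-recommended serial broth microdilution procedure.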
A general note: Broth dilution looks for growth in wells or tubes with falling amounts of substance.

The subject of experiment [2] is Staphylococcus aureus 757 (MRSA). The experiment in a line: MIC, broth microdilution, SA 757. The method, boiled down:
as §1

Experiment [3] concerns Staphylococcus aureus 2012 (VISA). The experiment in a line: MIC, broth microdilution, SA 2012. Summed up: as §1
Experiment [4] deals with Staphylococcus epidermidis 835. Kind of experiment: MIC, broth microdilution, SE 835. As to conditions: numeric value, comparison. The method, boiled down: as §1
In experiment [5] the test system is Staphylococcus epidermidis 831 (MRSE). Kind of experiment: MIC, broth microdilution, SE 831. Summed up:
as §1

Experiment [6] relates to Enterococcus faecalis 101 (ATCC 29212). The experiment in a line: MIC, broth microdilution, EFc 101. Summed up: as §1
The test system of experiment [7] is Enterococcus faecalis 848 (VRE, Van A). Kind of experiment: MIC, broth microdilution, EFc 848. The method, boiled down:
as §1

The next experiment deals with Enterococcus faecium 800. The experiment in a line: MIC, broth microdilution, EFcm 800. The method, boiled down: as §1
The test system of experiment [8] is Enterococcus faecium 752 (VRE, Van A). The experiment in a line: MIC, broth microdilution, EFcm 752. The method, boiled down:
as §1

Experiment [9] has as its system Streptococcus pneumoniae 1195 (ATCC 49619). Kind of experiment: MIC, broth microdilution, SPNE 1195. Summed up:
as §1

In experiment [10] the test system is Streptococcus pyogenes 712. Kind of experiment: MIC, broth microdilution, SPY 712. Summed up: as §1
The mark [11] stands for this setting: Table 2, in the presence of 0.002% Polysorbate 80, numeric value, comparison.
[12] abbreviates: Table 2, VRE, Van A, in the presence of 0.002% Polysorbate 80, numeric value, comparison.

Values after ≈ are worked out from the molar mass of the structure shown. Like-named read-outs stand apart in the source and are kept apart here.

With `CN[C@H](CC(C)C)C(=O)N[C@H]1C(=O)N[C@@H](CC(N)=O)C(=O)N[C@H]2C(=O)N[C@H]3C(=O)N[C@H](C(=O)N[C@H](C(=O)O)c4cc(O)cc(O)c4-c4cc3ccc4O)[C@H](O)c3ccc(c(Cl)c3)Oc3cc2cc(c3O[C@@H]2O[C@H](CO)[C@@H](O)[C@H](O)[C@H]2O[C@H]2C[C@](C)(N)[C@H](O)[C@H](C)O2)Oc2ccc(cc2Cl)[C@H]1O` [Vancomycin, vancomycin, reference compound], the minimum inhibitory concentration (MIC) in [1] (Staphylococcus aureus, ATCC29213, read-out: MIC SA 100) came to 1 µg/mL (≈ 0.69 µM); in experiment [2] (read-out: MIC SA 757, Table 1, numeric value, comparison), 1 µg/mL (≈ 0.69 µM); in [2] (read-out: MIC SA 757, Table 2, in the presence of 0.002% Polysorbate 80, numeric value, comparison), 2 µg/mL; in experiment [3] (read-out: MIC SA 2012, Table 1, numeric value, comparison) it was 8 µg/mL (≈ 5.52 µM); in experiment [3] (read-out: MIC SA 2012, Table 2, in the presence of 0.002% Polysorbate 80, numeric value, comparison), 4 µg/mL; in [4] (Staphylococcus epidermidis, 835, read-out: MIC SE 835, Table 1), 4 µg/mL (≈ 2.76 µM). Besides, the MIC in [4] (Staphylococcus epidermidis, 835, read-out: MIC SE 835, Table 2, in the presence of 0.002% Polysorbate 80) is 2 µg/mL; in experiment [5] (Staphylococcus epidermidis, read-out: MIC SE 831), 2 µg/mL (≈ 1.38 µM); in experiment [6] (Enterococcus faecalis, ATCC29212, read-out: MIC E FC 101) it was 4 µg/mL (≈ 2.76 µM); in experiment [7] (read-out: MIC E FC 848) it was more than 64 µg/mL; in the experiment with Enterococcus faecium 800 (Enterococcus faecium, 800, read-out: MIC E FCM 800), 1 µg/mL (≈ 0.69 µM); in [8] (read-out: MIC E FCM 752) it was more than 64 µg/mL. The minimal inhibitory concentration (MIC) in experiment [9] (Streptococcus pneumoniae, ATCC49619, read-out: MIC S PNE 1195) amounted to 0.25 µg/mL (≈ 0.173 µM); in [10] (Streptococcus pyogenes, 712, read-out: MIC S PYO 712) it was 0.5 µg/mL (≈ 0.345 µM). Further, the “MIC SA 100” value in experiment [1] (setting [11]) was 1 µg/mL. Further, the “MIC SE 831” value in [5] (setting [11]) is 2 µg/mL. Besides, in [6] (setting [11]), the “MIC E FC 101” value came out at 4 µg/mL. The “MIC E FC 848” value in experiment [7] (setting [12]) is more than 64 µg/mL. Moreover, in the experiment on Enterococcus faecium 800 (setting [11]), the “MIC E FCM 800” value came out at 1 µg/mL. The “MIC E FCM 752” value in experiment [8] (setting [12]) is more than 64 µg/mL. Besides, the “MIC S PNE 1195” value in [9] (setting [11]) worked out at 0.25 µg/mL. For the same molecule, the “MIC S PYO 712” value in [10] (setting [11]) amounted to 0.5 µg/mL.
